Measured values: patent publication US9402827B2, “Treatment of gout” (ARDEA BIOSCIENCES, INC., priority 2010, dated 2016)

Tests used:
IL-1β [1] = test: In vitro THP-1 (human cell) assay, IL-1β; assay type: cell-based; settings: differentiated THP-1 cells, 6 hours, FIG. 3B
Procedure: Uric acid (2 g, Sigma, Cat #U0881, Log S89329-419) was heated in a flask at 200° C. for 2 hours. Endotoxin free water (396 mL) followed by aqueous sodium hydroxide solution (2.375 mL of 5N or 1.19 mL 10N) were added and heated on a stir plate until the uric acid dissolved. […] The solution was stirred at room temperature for 24 hours and then centrifuged at 1000 g for 10 min. The supernatant was discarded and resuspended in PBS and centrifuged at 1000 g for 10 min; this step was repeated twice. The washed crystals were heated at 60° C. until dry and then autoclaved at 200° C. for 2 hours. The crystals were then weighed and resuspended in PBS at a concentration of 26 mg/ml.
THP-1 cells were differentiated with 0.5 μM of phorbol myristate acetate (PMA) incubated for 3 hours. Cells were then spun down and washed once with HBSS. 1.25×10^6/mL cells were plated in white clear bottom white 96 well plate in 100 μL volume and incubated overnight. The next day the media was aspirated from the wells. 100 μL of 1× Optimem along with the compounds were added.

IL-1β [2] = test: In vitro primary human monocyte assay, IL-1β; assay type: cell-based; settings: primary human monocytes, FIG. 4A
Procedure: Blood (50-60 ml) was collected in Heparin vaccutainers (BD vaccutainer, Cat No-367874, Sodium Heparin, 10 ml tube; each holding ˜8-10 ml blood), which was immediately mixed to prevent coagulation. Accuspin-Histopaque 1077 (Sigma Aldrich cat no-A7054) was allowed to reach room temperature and diluted blood 1:1 in DPBS (Dulbecco's Phosphate-Buffered Saline (1×), liquid—Invitrogen, 14040-133), mixed by pipetting. The tubes were centrifuged (800 g; 30 seconds; room temp) to ensure all the Histopaque 1077 was below the high density polyethylene barrier.
Diluted blood (50 ml) was added to the upper chamber of each ACCUSPIN tube and centrifuged at room temp for 10 minutes at 1000×g or 15 minutes at 800×g, (brakes were off for this step; acc=1, dcl=1). PBMCs were collected from the PBS/Ficoll interphase with a transfer pipette and transferred to a new 50 mL tube. […]
Supernatant was decanted and 5 mL of RBC lysis solution added to the pellet and mixed well. […] The supernatant was discarded, resuspended in RPMI complete media, and the cells counted.
The hPBM cells isolated in step A were counted, centrifuged (300 g; 10 min) and the supernatant aspirated. […]
The centrifuged cells were then resuspended in 5 ml of MACS buffer and applied to the column. […] Cells were spun down (300 g, 5 min; supernatant discarded), resuspended in RPMI complete media and counted.

[3] = test system: MSU-induced knee joint swelling; test: In vivo MSU-induced inflammation, rat knee joint study (Example 3C); design: species or system Sprague-Dawley rats
Procedure: [table] Groups 1 and 2 were orally dosed with Vehicle (sterile water) once daily for seven days from Day 1. […] Groups 6 and 7 were orally dosed with Lesinurad once daily for seven days from Day 1; Group 7 also received colchicine administered subcutaneously on Day 7. […] The injection was performed from the anterior aspect of the knee joint, which was slightly extended and flexed. […] Four hours after MSU administration, the rats were anesthetized, the diameter of right knee joints were measured with calipers; surface temperature for right knees were measured. Synovial lavage fluid from the knee was collected by injecting phosphate buffered saline with 1% BSA (0.2 mL) into the joint cavity, the fluid then collected, centrifuged and the supernatants stored at −80° C.

IL-1β [4] = test: Effect on IL-1β release after stimulation with ATP or MSU crystals (Example 1, FIG. 1); assay type: cell-based; settings: within 1 hour of stimulation with ATP (5 mM) or 1 μg MSU crystals
Procedure: FIG. 1 illustrates the effect of Lesinurad on IL-1β release within 1 hour of stimulation with ATP (5 mM) or 1 μg MSU (monosodium urate) crystals (compd1=Lesinurad; C-1inh=caspase-1 inhibitor).
Activation of the inflammasome results in the release of preformed IL-1, which goes on to activate other targets as well as increase the production of IL-1 itself.

gout flares = test: Phase II clinical trial in gout patients with hyperuricemia: time to first flare, flare rate (Example 5); assay type: in vivo, human; settings: for 4 Wk % Flare (percent of patients experiencing at least one gout flare by week 4): based on ITT patient number, colchicine prophylaxis; for Time to First Flare (cumulative flare rate), Day 0 / Time to First Flare (cumulative flare rate), Day 7 / Time to First Flare (cumulative flare rate), Day 14 / Time to First Flare (cumulative flare rate), Day 21 / Time to First Flare (cumulative flare rate), Day 28: colchicine prophylaxis 0.5-0.6 mg QD
Procedure: A phase II clinical trial including 123 gout patients with hyperuricemia (serum uric acid ≧8 mg/dL) in 4 treatment arms was conducted. The trail lasted 8 weeks, comprising a 2 week run in period, 4 week treatment period and 2 week follow-up.
Patients were randomly assigned to arms 1, 2, 3 or 4 and orally administered Lesinurad according to Table 9 below and FIG. 8; all received colchicine prophylaxis (0.5-0.6 mg QD) for 2 weeks prior to Lesinurad dosing and throughout the 4 week treatment period.

[5] = Arm 2 (200 mg week 1, 400 mg weeks 2-4)
[6] = Arm 3 (200 mg week 1, 400 mg week 2, 600 mg weeks 3-4)

## O=C(O)CSc1nnc(Br)n1-c1ccc(C2CC2)c2ccccc12 [Lesinurad, 2-(5-bromo-4-(4-cyclopropylnaphthalen-1-yl)-4H-1,2,4-triazol-3-ylthio)acetic acid]
IL-1β [1]
  IC50: ~30 µM
IL-1β [2]; Monocyte
  IC50: ~50 µM
IL-1β [2]; 100 uM, 50 uM and 25 uM
  IL-1β inhibition: dose dependent IL-1β inhibition
[3]; Lesinurad 60 mg/kg p.o. once daily Day1-Day7, 4 h after MSU, p < 0.001 vs Vehicle
  Average increase in knee diameter: 0.46 mm
[3]; Lesinurad 60 mg/kg/day
  MSU-induced increase in knee diameter, in words: significantly decreased the MSU-induced increase in knee diameter
IL-1β [4]
  IL-1 release: blocks IL-1 release very early
Gout flares; Arm 1 (200 mg weeks 1-4)
  4 Wk % Flare (percent of patients experiencing at least one gout flare by week 4): 10%
  Time to First Flare (cumulative flare rate), Day 0: 27
  Time to First Flare (cumulative flare rate), Day 7: 27
  Time to First Flare (cumulative flare rate), Day 14: 26
  Time to First Flare (cumulative flare rate), Day 21: 25
  Time to First Flare (cumulative flare rate), Day 28: 25
Gout flares; [5]
  4 Wk % Flare (percent of patients experiencing at least one gout flare by week 4): 12%
  Time to First Flare (cumulative flare rate), Day 0: 31
  Time to First Flare (cumulative flare rate), Day 7: 31
  Time to First Flare (cumulative flare rate), Day 14: 30
  Time to First Flare (cumulative flare rate), Day 21: 28
  Time to First Flare (cumulative flare rate), Day 28: 26
Gout flares; [6]
  Time to First Flare (cumulative flare rate), Day 0: 33
  Time to First Flare (cumulative flare rate), Day 7: 31
  Time to First Flare (cumulative flare rate), Day 14: 31
  Time to First Flare (cumulative flare rate), Day 21: 29
  Time to First Flare (cumulative flare rate), Day 28: 29
Gout flares; Arm 3 (200/400/600/600 mg)
  4 Wk % Flare (percent of patients experiencing at least one gout flare by week 4): 13%
